In patent US8129137B2, “Two-photon probe for real-time monitoring of intracellular free zinc ions, method for preparing the probe and method for real-time monitoring of intracellular free zinc ions using the probe” (Korea University Industrial & Academic Collaboration …, priority 2008, dated 2012):

Experiments:
[1] = Dissociation constants for Zn2+ from one- and two-photon fluorescence titration; type: binding
Description: MOPS buffer solutions (30 mM, pH 7.2, 0.1 M KCl) containing different amounts of ZnSO4 and 10 mM EGTA were prepared.
The concentration of free Zn^2+ ([Zn^2+]free) was calculated from KZn−EGTA^app, [EGTA]free, and [Zn^2+]total using Equation 1: [Zn^2+]free=[Zn^2+]total/(αZn×KZn−EGTA^app×[EGTA]free) (1) where KZn−EGTA^app=KZn−EGTA/αZnαEGTA, αZn=1+10^(pH−pK^1^)+10^(2pH−pK^1^−pK^2^)+10^(3pH−pK^1^−pK^2^−pK^3^) . . . , αEGTA=1+10^(pK^1^−pH+0.11)+10^(pK^1^+pK^2^−2pH+0.22)+10^(pK^1^+pK^2^+pK^3^−3pH+0.33) . . . , and [EGTA]free=[EGTA]total−[Zn^2+]total. Therefore,
Then, the stability constant (KZn−EGTA) of the EGTA−Zn^2+ complex was obtained by the known method. For EGTA (pH 7.2, 0.1 M KCl, 25° C.), pK1, pK2, pK3 and log^K^Zn−EGTA were 9.40, 8.79, 2.70 and 12.6, respectively. […]
In order to determine accurate dissociation constants for the two-photon probes, fluorescence titration curves were obtained from FIGS. 3a and 3e using Equation 2:
[formula] where F is the fluorescence intensity, Fmax is the maximum fluorescence intensity, Fo is the fluorescence intensity in the absence of Zn^2+, and [Zn^2+]free is the concentration of free Zn^2+.
The Kd value that best fits the titration curve ([…]) with Equation 2 was calculated by using the Excel program. […]

293 cells = assay: TPEF monitoring of labeled 293 cells after SNOC and TPEN; type: cell-based; conditions: 10 mM SNOC, 0.1 mM TPEN, compared with AZn2
Description: Referring to FIG. 14, the TPEF intensity increased gradually with time and then decreased abruptly upon addition of 0.1 mM TPEN, a membrane permeable Zn^2+chelator that can effectively remove Zn^2+.

rat hippocampal slice = assay: Monitoring of Zn2+ in rat hippocampal slice by TPM
Description: In this experimental example, TPM images were obtained from a part of acute rat hippocampal slice incubated with 10 μM AZn2 for 30 min at 37° C. Because the slice of a 14-day old rat was too big to show with one image, several TPM images were obtained in the same plane at ˜120 μm depth and combined. […]
The negligible TPEF (c) after addition of TPEN, which effectively remove the [Zn^2+]i, provides a supporting evidence for this observation.
When 50 mM KCl, a membrane depolarizer causing the release of Zn^2+, was added to the imaging solution, the TPEF intensity increased, and then decreased upon treatment with TPEN. Similar results can also be found in (d)-(f) of FIG. 15.

| SMILES | detection limit for Zn2+ [1] | TPEF response after SNOC then TPEN (293 cells) | TPEF intensity after addition of KCl (rat hippocampal slice; 50 mM KCl, hilus of dentate gyrus) | TPEF after addition of TPEN (rat hippocampal slice; hilus of dentate gyrus, FIG. 17) | depth at which intracellular free Zn2+ is imaged in live tissue (rat hippocampal slice; rat hippocampal slice, 10 μM probe) |
| --- | --- | --- | --- | --- | --- |
| Nc1ccc(NCCN(Cc2ccccn2)Cc2ccccn2)cc1 [AZn1] | sub-nM range | the response was smaller | – | – | – |
| COc1cc(NC(=O)CN(C)c2ccc3cc(C(C)=O)ccc3c2)ccc1NCCN(Cc1ccccn1)Cc1ccccn1 [AZn2] | sub-nM range | – | increased | clear reduction in TPEF | 80-150 μm |
